The values below come from patent US9765101B2, “Organo-arsenoxide compounds and use thereof” (NewSouth Innovations Pty Limited, priority 2006, dated 2017).

Molecules are shown by their SMILES.

Common to all, as to format: cell-based, bovine
Data set [1] deals with BAE cells. Briefly: BAE cell proliferation assay (MTT, 72 h). As to the method:
BAE cells were from Cell Applications, San Diego, Calif. and BxPC-3, HT1080, LLC, PANC-1, MCF-7, HCT116 and K562 cells were from ATCC, Bethesda, Md. NB4 and MDCK2 cells were from Shane Supple (Kanematsu Laboratories, Royal Prince Alfred Hospital, Sydney, Australia) and P. Borst (The Netherlands Cancer Institute, Amsterdam, The Netherlands). BAE, HT1080, Panc-1, MCF-7, HCT116, MDCK2 and LLC cells were cultured in DMEM. NB4, K562 and BxPC-3 cells were cultured in RPMI medium. The cells were supplemented with 10% foetal calf serum (FBS), 2 mM L-glutamine, and 1 U·mL-1 penicillin/streptomycin. Cell culture plasticware was from Techno Plastic Products (Trasadingen, Switzerland). All other cell culture reagents were from Gibco (Gaithersburg, Md.).
Adherent cells were allowed to adhere overnight.

Data set [2] relates to BAE cells. Briefly: BAE cell proliferation assay, 24, 48 or 72 h (Example 2). As to the method: Bovine aortic endothelial (BAE) cells were from Cell Application (San Diego, Calif.). BAE cells were cultured in DMEM supplemented with 10% fetal calf serum, 2 mM L-glutamine, and 5 units per mL penicillin and streptomycin (Gibco, Gaithersburg, Md.). Cells were cultured at 37° C. in a 5% CO2, 95% air atmosphere. BAE cells were seeded in 96-well plates (5,000 cells per well) in 0.2 ml of culture medium. After 24 h of growth, the medium was replaced with fresh culture medium supplemented with GSAO, CAO or 4H10 and cells were cultured for an additional 24, 48 or 72 h. Viable attached cells were determined using the tetrazolium salt MTT (Sigma, St. Louis, Mo.) according to the manufacturer's protocol. Results were expressed as percentage of untreated controls.

The test system of data set [3] is BAE cells. Briefly: Accumulation of GSAO and CAO in BAE cells (ICPMS). As to the method: Depending on the type of experiments, 1.6×10^6 or 7.5×10^5 BAE cells were seeded in petri dishes or 6-well-plates, respectively, and allowed to attach overnight. The medium was replaced and the cells were incubated for 30 min in the absence or presence of acivicin or 4H10. The cells were then incubated with 50 or 100 μM GSAO or CAO […] for 4 h. Cells were then washed twice with ice-cold PBS and lysed with 1 ml of 70% w/w nitric acid.

The target in data set [4] is T1, multidrug resistance associated protein 1 (MRP-1) (Bos taurus, UniProt Q8HXQ5).
T1 construct: host or cells: BAE (bovine aortic endothelial) cells
As to the kind of experiment: Accumulation in BAE cells with MRP-1 inhibitor 4H10. How it is done: FIG. 16. […] A. CAO accumulates in cells at a much faster rate than GSAO. BAE cells were incubated with 50 μM GSAO or CAO for 4 h. Cellular arsenic levels were determined by ICPMS. The rates of accumulation are GSAO and CAO are 0.03 and 0.20 nmol As atoms per 10^6 cells, respectively. Data points are the mean±SD of three determinations. The results are representative of two experiments. […] BAE cells pretreated for 30 min with 10 μM of the MRP-1 inhibitor 4H10 were incubated with 50 μM GSAO or CAO for 2 h. Cellular arsenic levels were determined by ICPMS. Data points are the mean±SD of three determinations. The results are representative of two experiments. C. GSAO and CAO IC50 values for proliferation arrest of endothelial cells. BAE cells were incubated with 0.8-100 μM GSAO or CAO for 24, 48 or 72 h. Cell viability was determined using MTT. Results are expressed as percentage of control. Values are mean±SD of triplicate determinations. Results are representative of three experiments.
Depending on the type of experiments, 1.6×10^6 or 7.5×10^5 BAE cells were seeded in petri dishes or 6-well-plates, respectively, and allowed to attach overnight. The medium was replaced and the cells were incubated for 30 min in the absence or presence of acivicin or 4H10. The cells were then incubated with 50 or 100 μM GSAO or CAO for 30 mM for 4 h. […]

T1 sequence (Q8HXQ5 whole entry): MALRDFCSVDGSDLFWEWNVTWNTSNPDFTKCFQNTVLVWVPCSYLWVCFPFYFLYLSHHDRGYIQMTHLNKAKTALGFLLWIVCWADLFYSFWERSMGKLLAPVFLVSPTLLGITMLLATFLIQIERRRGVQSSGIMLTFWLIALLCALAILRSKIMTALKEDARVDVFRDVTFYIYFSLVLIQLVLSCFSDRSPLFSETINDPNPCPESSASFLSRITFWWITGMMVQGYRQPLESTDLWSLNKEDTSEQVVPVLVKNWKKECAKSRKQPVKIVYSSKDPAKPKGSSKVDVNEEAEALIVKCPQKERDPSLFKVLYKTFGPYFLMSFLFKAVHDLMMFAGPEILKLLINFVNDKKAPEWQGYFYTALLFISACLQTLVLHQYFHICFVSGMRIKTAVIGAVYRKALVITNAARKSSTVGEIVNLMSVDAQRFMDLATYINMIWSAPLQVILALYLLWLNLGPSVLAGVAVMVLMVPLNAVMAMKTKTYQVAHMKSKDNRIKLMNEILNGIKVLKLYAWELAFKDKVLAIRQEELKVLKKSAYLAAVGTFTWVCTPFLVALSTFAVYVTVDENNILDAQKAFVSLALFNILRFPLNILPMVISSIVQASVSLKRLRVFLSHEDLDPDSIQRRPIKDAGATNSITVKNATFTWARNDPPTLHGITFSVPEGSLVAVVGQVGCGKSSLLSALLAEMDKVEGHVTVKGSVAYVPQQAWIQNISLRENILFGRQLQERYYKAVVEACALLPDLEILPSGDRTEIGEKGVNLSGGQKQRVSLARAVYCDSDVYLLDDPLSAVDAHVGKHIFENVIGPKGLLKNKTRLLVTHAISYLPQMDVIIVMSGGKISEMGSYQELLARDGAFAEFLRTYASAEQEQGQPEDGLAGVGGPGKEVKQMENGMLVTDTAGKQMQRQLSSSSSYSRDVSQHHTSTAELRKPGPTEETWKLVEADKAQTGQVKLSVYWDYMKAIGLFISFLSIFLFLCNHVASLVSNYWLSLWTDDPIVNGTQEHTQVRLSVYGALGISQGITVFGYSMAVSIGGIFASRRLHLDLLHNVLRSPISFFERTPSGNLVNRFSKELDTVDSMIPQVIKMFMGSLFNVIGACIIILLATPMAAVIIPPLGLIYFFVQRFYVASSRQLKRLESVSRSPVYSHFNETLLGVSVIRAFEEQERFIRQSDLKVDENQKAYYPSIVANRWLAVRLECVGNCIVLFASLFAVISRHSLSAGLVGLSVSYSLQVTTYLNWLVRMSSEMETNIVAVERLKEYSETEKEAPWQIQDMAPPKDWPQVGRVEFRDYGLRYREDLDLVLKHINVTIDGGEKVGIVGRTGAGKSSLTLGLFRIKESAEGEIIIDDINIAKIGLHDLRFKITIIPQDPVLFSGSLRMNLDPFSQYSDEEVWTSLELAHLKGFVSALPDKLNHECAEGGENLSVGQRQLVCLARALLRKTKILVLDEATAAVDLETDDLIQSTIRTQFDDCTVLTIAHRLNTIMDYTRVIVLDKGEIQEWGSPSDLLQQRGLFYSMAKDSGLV

Regarding `CC(C)(SCC(=O)Nc1ccc([As](=O)(O)O)cc1)[C@@H](N)C(=O)O` [(S)-Penicillamine-arsenonic acid, reference compound], in the data set with BAE cells [1], the “effect on proliferation of BAE cells” value is listed as “no effect on proliferation”.

Regarding `NC(CSCC(=O)Nc1ccc([As](O)O)cc1)C(=O)O` (stereo not drawn) [CAO, 4-(N—(S-cysteinylacetyl)amino)-phenylarsinous acid], the “anti-proliferative activity compared to GSAO” value with BAE cells [2] is listed as “greater anti-proliferative activity than GSAO”. For the same compound, the “rate of accumulation in endothelial cells, fold faster than GSAO” value with BAE cells [3] is reported as roughly 8 fold. Moreover, the rate of accumulation in the data set with BAE cells [3] (50 μM, 4 h) was 0.20 nmol As atoms per 10^6 cells. In addition, the “export by multidrug resistance associated protein 1” value in data set [4] is reported as “exported from cells by the multidrug resistance associated protein 1”. Besides, the “increase of cellular accumulation when MRP-1 was inhibited” value in data set [4] (10 μM 4H10 30 min, then 50 μM compound 2 h) is recorded as roughly 3 fold.
